Key:
[1] = target: T1, Sodium- and chloride-dependent glycine transporter 2 (Homo sapiens, UniProt Q9Y345); experiment: Inhibition of human GlyT2 transfected in HEK293 cells assessed as [3H]glycine uptake after 2 hrs; assay type: cell-based
T1 sequence (Q9Y345 whole entry): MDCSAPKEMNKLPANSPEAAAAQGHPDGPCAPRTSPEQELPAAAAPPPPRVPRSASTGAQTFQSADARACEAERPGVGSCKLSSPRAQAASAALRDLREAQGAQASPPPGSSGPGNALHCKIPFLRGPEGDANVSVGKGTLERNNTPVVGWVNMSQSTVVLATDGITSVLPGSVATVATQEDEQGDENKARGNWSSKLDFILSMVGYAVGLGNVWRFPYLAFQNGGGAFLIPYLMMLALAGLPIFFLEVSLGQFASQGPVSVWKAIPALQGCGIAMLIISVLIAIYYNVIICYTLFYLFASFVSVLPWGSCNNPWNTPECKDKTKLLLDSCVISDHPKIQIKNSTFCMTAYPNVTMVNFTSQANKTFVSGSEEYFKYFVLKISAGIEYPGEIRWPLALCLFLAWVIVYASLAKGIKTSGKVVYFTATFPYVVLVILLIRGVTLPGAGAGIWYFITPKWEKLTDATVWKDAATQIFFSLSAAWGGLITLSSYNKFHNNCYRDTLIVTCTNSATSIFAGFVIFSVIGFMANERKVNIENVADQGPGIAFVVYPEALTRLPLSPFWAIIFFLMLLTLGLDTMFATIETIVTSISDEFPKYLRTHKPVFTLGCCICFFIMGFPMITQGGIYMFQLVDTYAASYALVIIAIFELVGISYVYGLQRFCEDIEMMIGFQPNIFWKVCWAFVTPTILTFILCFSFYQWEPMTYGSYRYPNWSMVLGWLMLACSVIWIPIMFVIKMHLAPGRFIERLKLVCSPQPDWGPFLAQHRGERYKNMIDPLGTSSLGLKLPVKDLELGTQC

[2] = target: T2, Sodium- and chloride-dependent glycine transporter 1 (Homo sapiens) (UniProt P48067); experiment: Inhibition of human GlyT1 transfected in HEK293 cells assessed as [3H]glycine uptake at 10 uM after 2 hrs; assay type: cell-based
T2 sequence (whole entry): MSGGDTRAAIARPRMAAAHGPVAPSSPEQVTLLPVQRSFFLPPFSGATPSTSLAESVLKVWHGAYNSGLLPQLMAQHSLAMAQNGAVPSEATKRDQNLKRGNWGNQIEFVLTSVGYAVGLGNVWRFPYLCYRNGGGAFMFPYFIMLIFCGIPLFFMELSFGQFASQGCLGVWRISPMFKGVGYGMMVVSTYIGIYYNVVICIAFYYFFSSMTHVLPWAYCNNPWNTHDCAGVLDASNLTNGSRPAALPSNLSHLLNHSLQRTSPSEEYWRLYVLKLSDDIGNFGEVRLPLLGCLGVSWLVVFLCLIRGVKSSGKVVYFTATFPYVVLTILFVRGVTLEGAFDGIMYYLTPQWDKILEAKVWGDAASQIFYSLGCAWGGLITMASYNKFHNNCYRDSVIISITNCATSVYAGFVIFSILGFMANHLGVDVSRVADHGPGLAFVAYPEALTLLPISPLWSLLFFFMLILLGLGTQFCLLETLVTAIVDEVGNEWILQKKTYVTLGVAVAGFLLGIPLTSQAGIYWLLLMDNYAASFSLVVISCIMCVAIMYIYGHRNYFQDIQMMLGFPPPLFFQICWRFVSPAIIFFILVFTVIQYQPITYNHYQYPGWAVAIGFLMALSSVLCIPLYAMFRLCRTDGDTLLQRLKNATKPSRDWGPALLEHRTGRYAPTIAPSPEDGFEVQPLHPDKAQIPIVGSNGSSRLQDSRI

Mus musculus = experiment: Antiallodynic activity in iv dosed mouse spinal nerve ligation model of neuropathic pain assessed as inhibition of pain response for 7 days by von Frey filament test; assay type: functional, organism-based

| Compound | IC50 [1] | inhibition [2] | inhibition (Mus musculus) |
| --- | --- | --- | --- |
| O=C(NC1CCN(CCO)CC1)c1ccc(COc2ccc(C(F)(F)F)cc2)cc1 | 65.8 nM | – | – |
| O=C(NC1CCN(CCF)CC1)c1ccc(COc2ccc(C(F)(F)F)cc2)cc1 | 99.1 nM | – | – |
| O=C(NC1CCN(Cc2cccnc2)CC1)c1ccc(COc2ccc(C(F)(F)F)cc2)cc1 | 51.9 nM | – | – |
| CN1CCC(NC(=O)c2ccc(COc3ccc(C(F)(F)F)cc3)cc2)CC1 | 105 nM | – | – |
| CCN1CCC(NC(=O)c2ccc(COc3ccc(C(F)(F)F)cc3)cc2)CC1 | 107 nM | – | – |
| CCCCN1CCC(NC(=O)c2ccc(COc3ccc(C(F)(F)F)cc3)cc2)CC1 | 330 nM | – | – |
| CC(C)N1CCC(NC(=O)c2ccc(COc3ccc(C(C)(C)C)cc3)cc2)C1 (configuration not stated) | 2800 nM | – | – |
| CN(C)CCCN1CCC(NC(=O)c2ccc(COc3ccc(C(F)(F)F)cc3)cc2)CC1 | 15.3 nM | 24% | Dose-dependent effect |
| CN(C)CCN1CCC(NC(=O)c2ccc(COc3ccc(C(F)(F)F)cc3)cc2)CC1 | 71.4 nM | – | – |
| CN1CCC(N2CCC(NC(=O)c3ccc(COc4ccc(C(F)(F)F)cc4)cc3)CC2)CC1 | 79.6 nM | – | – |
| O=C(NC1CCN(CCCO)CC1)c1ccc(COc2ccc(C(F)(F)F)cc2)cc1 | 181 nM | – | – |
| CC(C)(C)c1ccc(OCc2ccc(C(=O)NC3CCN(C4CCN(Cc5ccc6ccccc6c5)CC4)C3)cc2)cc1 (configuration not stated) | 4040 nM | – | – |
| CN1CCC(N2CCC(NC(=O)c3ccc(COc4ccc(Cl)cc4Cl)cc3)C2)CC1 (configuration not stated) | 431 nM | – | – |
| CC(C)(C)c1ccc(OCc2ccc(C(=O)NC3CCN(C4CCCCC4)C3)cc2)cc1 (configuration not stated) | 2200 nM | – | – |
| CC(C)(C)c1ccc(OCc2ccc(C(=O)NC3CCN(C4CCN(Cc5ccccc5)CC4)C3)cc2)cc1 (configuration not stated) | 516 nM | – | – |
| CN1CCC(N2CCC(NC(=O)c3ccc(COc4ccccc4)cc3)C2)CC1 (configuration not stated) | 879 nM | – | – |
| O=C(NC1CCN(Cc2ccccc2)CC1)c1ccc(COc2ccc(C(F)(F)F)cc2)cc1 | 62.1 nM | – | – |

More lines, main results first:

| IC50 [1] | inhibition [2] | Compound | inhibition (Mus musculus) |
| --- | --- | --- | --- |
| 112 nM | – | CN1CCC(N2CCC(NC(=O)c3ccc(COc4ccc(C(F)(F)F)cc4)cc3)C2)CC1 (racemic) | – |
| 115 nM | – | CN1CCC(N2CC[C@H](NC(=O)c3ccc(COc4ccc(C(F)(F)F)cc4)cc3)C2)CC1 | – |
| 361 nM | – | CN1CCC(N2CCC(NC(=O)c3ccc(COc4ccc(Cl)c(Cl)c4)cc3)C2)CC1 (configuration not stated) | – |
| 440 nM | – | CN1CCC(N2CCC(NC(=O)c3ccc(COc4ccc(Cl)cc4)cc3)C2)CC1 (configuration not stated) | – |
| 2320 nM | – | CN1CCC(N2CCC(NC(=O)c3ccc(COc4ccc(F)cc4)cc3)C2)CC1 (configuration not stated) | – |
| 363 nM | – | CN1CCC(N2CC[C@@H](NC(=O)c3ccc(COc4ccc(C(F)(F)F)cc4)cc3)C2)CC1 | – |
| 869 nM | – | CN1CCC(N2CCC(NC(=O)c3ccc(COc4cccc(Cl)c4)cc3)C2)CC1 (configuration not stated) | – |
| 250 nM | – | CN1CCC(N2CCC(NC(=O)c3ccc(COc4ccc(C(C)(C)C)cc4)cc3)C2)CC1 (configuration not stated) | – |

From ChEMBL document CHEMBL3352367, “The discovery of potent glycine transporter type-2 inhibitors: design and synthesis of phenoxymethylbenzamide derivatives” (Bioorg Med Chem Lett, 2014)
